In US9133168B2, “Pyrimidine derivatives, preparation thereof, and pharmaceutical use thereof as akt(pkb) phosphorylation inhibitors” (SANOFI, priority 2010, dated 2015):

tested on: AKT protein phosphorylated on serine 473 (P-AKT-S473) in PC3 human prostate carcinoma cells; experiment: pAKT expression in PC3 human prostate carcinoma cells, MSD Multi-spot Biomarker detection (Test A); type: cell-based; settings: Homo sapiens, PC-3, PC3 cells, 1 to 2 h incubation, P-AKT-S473, absolute IC50, mean of two independent experiments
Method: The inhibitory activity of the molecules on AKT phosphorylation is measured using the MSD Multi-spot Biomarker detection technique from Meso Scale Discovery also described below. […] The primary antibody specific for […]) is coated on to an electrode in each well of the 96-well plates of the MSD kit: after the addition of a protein lysate to each well, the signal is visualized by adding a secondary detection antibody labeled with an electrochemiluminescent compound. The procedure followed is the one described in the kit. […] On day 2, the cells are incubated in the presence or absence of the test products for 1 to 2 h at 37° C. in the presence of 5% CO2. The molecules, diluted in dimethyl sulfoxide (DMSO Sigma #D2650), are added from a 20-times concentrated stock solution, the final percentage of DMSO being 0.1%. The molecules are tested either at a single concentration of less than or equal to 10 μM, or at increasing concentrations in a range that can extend from less than 1 nM to 10 μM. After this incubation, the cells are lysed for the preparation of the proteins. […] At this stage, the plates containing the lysates can be frozen at -20° C. or at -80° C. The wells of the 96 well plates of the MSD kit are saturated for 1 h at ambient temperature with the blocking solution of the MSD kit. Four washes are carried out with 150 μl of Tris Wash Buffer of the MSD kit. The lysates previously prepared are transferred into the 96-well multi-spot plates of the MSD kit and incubated for 1 h at ambient temperature, with shaking. Four washes are carried out with 150 μl of Tris Wash Buffer of the MSD kit. 25 μl of the MSD sulfo-tag detection antibody solution are added to the wells and incubated for 1 h at ambient temperature, with shaking. Four washes are carried out with 150 μl of Tris Wash Buffer of the MSD kit. 150 μl of Read Buffer of the MSD kit are added to the wells and the plates are read immediately on the S12400 instrument from Meso Scale Discovery. The instrument measures a signal for each well. Wells without cells and containing the lysis buffer serve to determine the background noise that will be subtracted from all the measurements (min). The wells containing cells in the absence of product and in the presence of 0.1% DMSO are considered to be the 100% signal (max). The percentage inhibition is calculated for each concentration of product tested, according to the following formula: (1-((test-min)/(max-min)))×100. […] Two independent experiments make it possible to calculate the mean of the IC50 values.

IC50 [µM]	SMILES
0.196	Cn1c(CC(=O)N2CC3(CCNCC3)c3ccccc32)nc(N2CCOCC2)cc1=O [Example 23d, 3-methyl-6-(morpholin-4-yl)-2-[2-oxo-2-(spiro[indole-3,4′-piperidin]-1(2H)-yl)ethyl]pyrimidin-4(3H)-one]
0.016	CC1Cc2c(Br)cccc2N1C(=O)Cc1nc(N2CCOCC2)c(F)c(=O)n1C (stereo not drawn) [Example 30a, 5-fluoro-2-[2-((+)-4-bromo-2-methyl-2,3-dihydroindol-1-yl)-2-oxoethyl]-3-methyl-6-morpholin-4-yl-3H-pyrimidin-4-one]
0.101	N#Cc1cccc2c1CCN2C(=O)Cc1nc(N2CCOCC2)cc(=O)[nH]1 [Example 46c, 1-{[4-(morpholin-4-yl)-6-oxo-1,6-dihydropyrimidin-2-yl]acetyl}-2,3-dihydro-1H-indole-4-carbonitrile]
0.015	O=C(Cc1nc(N2CCOCC2)cc(=O)[nH]1)N1c2ccccc2CC1CF (stereo not drawn) [Example 38d, 2-[2-((+)-2-Fluoromethyl-2,3-dihydroindol-1-yl)-2-oxoethyl]-6-morpholin-4-yl-3H-pyrimidin-4-one]
0.12	C[C@@H]1Cc2ccccc2N1C(=O)Cc1nc(N2CCOCC2)c(F)c(=O)n1C [Example 9a, 5-fluoro-3-methyl-2-{2-[(2R)-2-methyl-2,3-dihydro-1H-indol-1-yl]-2-oxoethyl}-6-(morpholin-4-yl)pyrimidin-4(3H)-one]
0.938	CC(C(=O)N1CCc2c(F)cccc21)c1nc(N2CCOCC2)c(F)c(=O)n1C (centres unmarked) [Example 2a, 5-fluoro-2-[1-(4-fluoro-2,3-dihydro-1H-indol-1-yl)-1-oxopropan-2-yl]-3-methyl-6-(morpholin-4-yl)pyrimidin-4(3H)-one]
0.102	CCCN1CCCC(c2cccc3c2CCN3C(=O)Cc2nc(N3CCOCC3)cc(=O)[nH]2)C1 (centres unmarked) [Example 7d, 6-(morpholin-4-yl)-2-{2-oxo-2-[4-(1-propylpiperidin-3-yl)-2,3-dihydro-4H-indol-1-yl]ethyl}pyrimidin-4(3H)-one]
0.111	O=C(Cc1nc(N2CCOCC2)cc(=O)[nH]1)N1CCc2c(N3CCOCC3)cccc21 [Example 33d, 6-(morpholin-4-yl)-2-{2-[4-(morpholin-4-yl)-2,3-dihydro-1H-indol-1-yl]-2-oxoethyl}pyrimidin-4(3H)-one]
0.055	CC1Cc2cc(F)ccc2N1C(=O)Cc1nc(N2CCOCC2)c(F)c(=O)n1C (stereo not drawn) [Example 14a, 5-fluoro-2-[2-((−)-5-fluoro-2-methyl-2,3-dihydroindol-1-yl)-2-oxoethyl]-3-methyl-6-morpholin-4-yl-3H-pyrimidin-4-one]
0.094	O=C(Cc1nc(N2CCOCC2)cc(=O)[nH]1)N1CCc2c(-c3ccncc3)cccc21 [Example 10d, 6-(morpholin-4-yl)-2-{2-oxo-2-[4-(pyridin-4-yl)-2,3-dihydro-1H-indol-1-yl]ethyl}pyrimidin-4(3H)-one]
0.032	COc1ccccc1-c1cccc2c1CCN2C(=O)Cc1nc(N2CCOCC2)cc(=O)[nH]1 [Example 6d, 2-{2-[4-(2-methoxyphenyl)-2,3-dihydro-1H-indol-1-yl]-2-oxoethyl}-6-(morpholin-4-yl)pyrimidin-4(3H)-one]
0.105	CCC1CN(c2cc(=O)[nH]c(CC(=O)Nc3ccc(F)cc3)n2)CCO1 (single isomer, unassigned; (+)) [Example 15b, (+)-2-[4-(2-Ethylmorpholin-4-yl)-6-oxo-1,6-dihydropyrimidin-2-yl]-N-(4-fluorophenyl)acetamide]
1.33	O=C(Cc1nc(N2CCOC(CO)C2)cc(=O)[nH]1)N1CCc2c(F)cccc21 (racemic) [Example 27b, (±)-2-[2-(4-fluoro-2,3-dihydroindol-1-yl)-2-oxoethyl]-6-(2-hydroxymethylmorpholin-4-yl)-3H-pyrimidin-4-one]
0.37	O=C(Cc1nc(-c2ccncc2)cc(=O)[nH]1)N1CCc2c(F)cccc21 [Example 12b, 2-[2-(4-fluoro-2,3-dihydroindol-1-yl)-2-oxoethyl]-6-pyridin-4-yl-3H-pyrimidin-4-one]
0.044	C[C@H]1Cc2ccccc2N1C(=O)Cc1nc(N2CCOC(CF)C2)cc(=O)[nH]1 (stereo partly drawn) [Example 30b, 6-(2-fluoromethylmorpholin-4-yl)-2-[2-((S)-2-methyl-2,3-dihydroindol-1-yl)-2-oxoethyl]-3H-pyrimidin-4-one]
0.001	CC1Cc2c(ccc(F)c2F)N1C(=S)Cc1nc(N2CCOCC2)c(F)c(=S)[nH]1 (stereo not drawn) [Example 9e, 2-[2-((+)-4,5-Difluoro-2-methyl-2,3-dihydroindol-1-yl)-2-thioxoethyl]-5-fluoro-6-morpholin-4-yl-3H-pyrimidine-4-thione]
0.004	C[C@H]1Cc2ccccc2N1C(=S)Cc1nc(N2CCOCC2)cc(=S)[nH]1 [Example 2e, 2-[2-((S)-2-methyl-2,3-dihydroindol-1-yl)-2-thioxoethyl]-6-morpholin-4-yl-3H-pyrimidine-4-thione]
3	COc1cc(-c2cc(=O)[nH]c(CC(=O)N3CCc4c(F)cccc43)n2)ccn1 [Example 13b, 2-[2-(4-fluoro-2,3-dihydroindol-1-yl)-2-oxoethyl]-6-(2-methoxypyridin-4-yl)-3H-pyrimidin-4-one]

same assay, conditions: PC3 cells, 1 to 2 h incubation, P-AKT-S473, absolute IC50, mean of two independent experiments

IC50 [µM]	SMILES
0.013	CC1Cc2c(ccc(F)c2F)N1C(=O)Cc1nc(N2CCOCC2)cc(=O)n1C (single isomer, unassigned; (-)) [Example 20c, (−)-2-{2-[4,5-difluoro-2-methyl-2,3-dihydro-1H-indol-1-yl]-2-oxoethyl}-3-methyl-6-(morpholin-4-yl)pyrimidin-4(3H)-one]
0.024	CC1Cc2c(O)cccc2N1C(=O)Cc1nc(N2CCOCC2)cc(=O)[nH]1 (centres unmarked) [Example 6c, 2-[2-(4-hydroxy-2-methyl-2,3-dihydro-1H-indol-1-yl)-2-oxoethyl]-6-(morpholin-4-yl)pyrimidin-4(3H)-one]
0.018	CC1CN(c2cc(=O)[nH]c(CC(=O)N3CCc4c(F)cccc43)n2)CCO1 (centres unmarked) [Example 8b, 2-[2-(4-fluoro-2,3-dihydroindol-1-yl)-2-oxoethyl]-6-(2-methylmorpholin-4-yl)-3H-pyrimidin-4-one]
0.017	CC1Cc2cc(F)c(F)cc2N1C(=O)Cc1nc(N2CCOCC2)cc(=O)[nH]1 (stereo not drawn) [Example 21c, 2-{2-[(+)-5,6-difluoro-2-methyl-2,3-dihydro-1H-indol-1-yl]-2-oxoethyl}-6-(morpholin-4-yl)pyrimidin-4(3H)-one]
0.033	CC1Cc2c(OC(F)F)cccc2N1C(=O)Cc1nc(N2CCOCC2)cc(=O)[nH]1 (single isomer, unassigned; (+)) [Example 29d, (+)-2-{2-[4-(difluoromethoxy)-2-methyl-2,3-dihydro-1H-indol-1-yl]-2-oxoethyl}-6-(morpholin-4-yl)pyrimidin-4(3H)-one]
0.027	CC1Cc2ccc(F)cc2N1C(=O)Cc1nc(N2CCOCC2)cc(=O)[nH]1 (stereo not drawn) [Example 35c, 2-{2-[(+)-6-fluoro-2-methyl-2,3-dihydro-1H-indol-1-yl]-2-oxoethyl}-6-(morpholin-4-yl)pyrimidin-4(3H)-one]
0.008	CC1CN(c2cc(=O)[nH]c(CC(=O)N3CCc4c(F)cccc43)n2)CCO1 (single isomer, unassigned; (+)) [Example 10b, (+)-2-[2-(4-fluoro-2,3-dihydroindol-1-yl)-2-oxoethyl]-6-(2-methylmorpholin-4-yl)-3H-pyrimidin-4-one]
0.242	CC1Cc2c(Cl)cccc2N1C(=O)Cc1nc(N2CCOCC2)cc(=O)n1C (single isomer, unassigned; (-)) [Example 34c, (−)-2-{2-[4-chloro-2-methyl-2,3-dihydro-1H-indol-1-yl]-2-oxoethyl}-3-methyl-6-(morpholin-4-yl)pyrimidin-4(3H)-one]
0.27	CC1Cc2cc(F)c(F)cc2N1C(=O)Cc1nc(N2CCOCC2)c(F)c(=O)n1C (stereo not drawn) [Example 27a, 5-fluoro-2-[2-((−)-5,6-difluoro-2-methyl-2,3-dihydroindol-1-yl)-2-oxoethyl]-3-methyl-6-morpholin-4-yl-3H-pyrimidin-4-one]
0.002	CC1Cc2c(ccc(F)c2F)N1C(=O)Cc1nc(N2CCOCC2)c(F)c(=O)[nH]1 (stereo not drawn) [Example 20a, 2-[2-((−)-4,5-difluoro-2-methyl-2,3-dihydroindol-1-yl)-2-oxoethyl]-5-fluoro-6-morpholin-4-yl-3H-pyrimidin-4-one]
0.016	C[C@H]1Cc2ccccc2N1C(=O)Cc1nc(N2CCOCC2)cc(=O)[nH]1 [Example 19b, (+)-2-[2-(2-methyl-2,3-dihydroindol-1-yl)-2-oxoethyl]-6-morpholin(D4)-4-yl-3H-pyrimidin-4-one]
